How the values were obtained:
barnyardgrass [1] = test: Test B pre-/postemergence herbicide test; type: in vivo, Echinochloa crus-galli; details: for Plant response rating (0 to 100 scale), Barnyardgrass: 0 is no effect, preemergence
In short: (§1)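 Herbicidal effect was judged by eye on a 0–100 scale after plants stood 13 to 15 days in the greenhouse following pre- or postemergence treatment with surfactant-containing formulations.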

Surinam grass = test: Test B pre-/postemergence herbicide test; type: in vivo, Urochloa decumbens; details: for Plant response rating (0 to 100 scale), Surinam Grass: 0 is no effect, 100 is complete control, preemergence
In short: (§2)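 Greenhouse pot assay with simultaneous preemergence (treated seed) and postemergence (2–18 cm seedlings) applications of surfactant-containing, non-phytotoxic solvent formulations. Response scored visually 13–15 days later on a 0–100 scale, 100 meaning complete control.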

cocklebur = test: Test B pre-/postemergence herbicide test; type: in vivo, Xanthium strumarium; details: for Plant response rating (0 to 100 scale), Cocklebur: 0 is no effect, preemergence
In short: as §1

corn = test: Test B pre-/postemergence herbicide test; type: in vivo, Zea mays; details: for Plant response rating (0 to 100 scale), Corn: 0 is no effect, preemergence
In short: as §2

large crabgrass = test: Test B pre-/postemergence herbicide test; type: in vivo, Digitaria sanguinalis; details: for Plant response rating (0 to 100 scale), Crabgrass, Large: 0 is no effect, preemergence
In short: as §2

giant foxtail = test: Test B pre-/postemergence herbicide test; type: in vivo, Setaria faberi; details: for Plant response rating (0 to 100 scale), Foxtail, Giant: 0 is no effect, preemergence
In short: as §2

lambsquarters = test: Test B pre-/postemergence herbicide test; type: in vivo, Chenopodium album
In short: as §2

morningglory = test: Test B pre-/postemergence herbicide test; type: in vivo, Ipomoea coccinea; details: for Plant response rating (0 to 100 scale), Morningglory: 0 is no effect, 100 is complete control, preemergence
In short: as §1

pigweed = test: Test B pre-/postemergence herbicide test; type: in vivo, Amaranthus retroflexus; details: for Plant response rating (0 to 100 scale), Pigweed: 0 is no effect, 100 is complete control, preemergence
In short: as §2

velvetleaf = test: Test B pre-/postemergence herbicide test; type: in vivo, Abutilon theophrasti; details: for Plant response rating (0 to 100 scale), Velvetleaf: 0 is no effect, 100 is complete control, preemergence
In short: as §2

blackgrass = test: Test B postemergence herbicide test; type: in vivo, Alopecurus myosuroides
In short: (§3)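 Treated at 2-leaf (paddy) or 1–4-leaf, 2–18 cm (postemergence); greenhouse 13–15 d; visual score vs control, 0 none to 100 complete control; dash = not tested.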

wheat = test: Test B postemergence herbicide test; type: in vivo, Triticum aestivum; design: key to Wheat plant response rating: 0 = no effect, 100 = complete control
In short: (§4)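 Plants grow to 1- to 4-leaf stage (2–18 cm) for postemergence spraying, or to 2-leaf stage for the paddy test. Formulated compound is applied. Greenhouse holding lasts 13–15 days. Response is scored visually relative to controls, 0 no effect to 100 complete control; a dash means no result.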

wild oat = test: Test B postemergence herbicide test; type: in vivo, Avena fatua
In short: as §4

rice = test: Test B flooded paddy test; type: in vivo, Oryza sativa; details: scale 0 to 100 (0 no effect, 100 complete control)
In short: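 Greenhouse test; postemergence application to plants at 1–4 leaves (2–18 cm); paddy species at 2 leaves; evaluated visually vs controls at 13–15 days; scale 0–100 (100 = complete control).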

[2] = test system: small flower umbrella sedge; test: Test B flooded paddy test; type: in vivo, Cyperus difformis; details: scale 0 to 100 (0 no effect, 100 complete control)
In short: as §3

ducksalad = test: Test B flooded paddy test; type: in vivo, Heteranthera limosa; details: scale 0 to 100 (0 no effect, 100 complete control)
In short: as §3

barnyardgrass [3] = test: Test B flooded paddy test; type: in vivo, Echinochloa crus-galli; details: scale 0 to 100 (0 no effect, 100 complete control)
In short: as §3

[4] = Postemergence, 125 g ai/ha, scale 0 (no effect) to 100 (complete control)
[5] = Postemergence, 500 g ai/ha, scale 0 (no effect) to 100 (complete control)
[6] = postemergence, 125 g ai/ha, scale 0 to 100
[7] = 500 g ai/ha, scale 0 to 100, 0 no effect, 100 complete control, preemergence
[8] = 125 g ai/ha, 100 is complete control
[9] = 125 g ai/ha, visual rating, scale 0 (no effect) to 100 (complete control), postemergence
[10] = postemergence, 500 g ai/ha, scale 0 to 100, 0 is no effect, 100 is complete control

CCNC(=O)c1cccc(NC(=O)c2nn(C(C)(C)C)nc2C)n1 [Compound 437]
Barnyardgrass plant response rating (barnyardgrass [1]; [4]): 0 | Barnyardgrass plant response rating (barnyardgrass [1]; [5]): 30 | Surinam Grass plant response rating (Surinam grass; [5]): 20 | Surinam Grass plant response rating (Surinam grass; [6]): 0 | Cocklebur plant response rating (cocklebur; [5]): 30 | Cocklebur plant response rating (cocklebur; [6]): 10 | Corn plant response rating (corn; [5]): 30 | Corn plant response rating (corn; [6]): 0 | Crabgrass, Large plant response rating (large crabgrass; [5]): 20 | Crabgrass, Large plant response rating (large crabgrass; [6]): 0 | Foxtail, Giant plant response rating (giant foxtail; [5]): 30 | Foxtail, Giant plant response rating (giant foxtail; [6]): 0 | Lambsquarters plant response rating (lambsquarters; [5]): 40 | Lambsquarters plant response rating (lambsquarters; [6]): 20 | Morningglory plant response rating (morningglory; [5]): 30 | Morningglory plant response rating (morningglory; [6]): 0 | Pigweed plant response rating (pigweed; [5]): 30 | Pigweed plant response rating (pigweed; [6]): 20 | Velvetleaf plant response rating (velvetleaf; [5]): 20 | Velvetleaf plant response rating (velvetleaf; [6]): 0 | Blackgrass plant response rating (blackgrass; [5]): 30 | Blackgrass plant response rating (blackgrass; [6]): 0 | Wheat plant response rating (wheat; [7]): 0 | Wheat plant response rating (wheat; [5]): 20 | Oat, Wild plant response rating (wild oat; [5]): 30 | Rice plant response rating (rice; 125 g ai/ha): 0 | Sedge, Umbrella plant response rating ([2]; 125 g ai/ha): 0 | Ducksalad plant response rating (ducksalad; 125 g ai/ha): 0 | Barnyardgrass plant response rating (barnyardgrass [3]; 125 g ai/ha): 0

Cc1nn(C(C)(C)C)nc1C(=O)Nc1cccc(C(=O)N2CC=CC2)n1 [Compound 441]
Barnyardgrass plant response rating (barnyardgrass [1]; [4]): 0 | Barnyardgrass plant response rating (barnyardgrass [1]; [5]): 0 | Surinam Grass plant response rating (Surinam grass; [5]): 0 | Surinam Grass plant response rating (Surinam grass; [6]): 0 | Cocklebur plant response rating (cocklebur; [5]): 10 | Cocklebur plant response rating (cocklebur; [6]): 10 | Corn plant response rating (corn; [5]): 30 | Corn plant response rating (corn; [6]): 0 | Crabgrass, Large plant response rating (large crabgrass; [5]): 0 | Crabgrass, Large plant response rating (large crabgrass; [6]): 0 | Foxtail, Giant plant response rating (giant foxtail; [5]): 0 | Foxtail, Giant plant response rating (giant foxtail; [6]): 0 | Lambsquarters plant response rating (lambsquarters; [5]): 20 | Lambsquarters plant response rating (lambsquarters; [6]): 20 | Morningglory plant response rating (morningglory; [5]): 0 | Morningglory plant response rating (morningglory; [6]): 0 | Pigweed plant response rating (pigweed; [5]): 20 | Pigweed plant response rating (pigweed; [6]): 20 | Velvetleaf plant response rating (velvetleaf; [5]): 0 | Velvetleaf plant response rating (velvetleaf; [6]): 0 | Blackgrass plant response rating (blackgrass; [5]): 40 | Blackgrass plant response rating (blackgrass; [6]): 20 | Wheat plant response rating (wheat; [7]): 30 | Wheat plant response rating (wheat; [5]): 30 | Wheat plant response rating (wheat; [6]): 20 | Oat, Wild plant response rating (wild oat; [5]): 40 | Oat, Wild plant response rating (wild oat; [6]): 30 | Rice plant response rating (rice; 125 g ai/ha): 0 | Sedge, Umbrella plant response rating ([2]; 125 g ai/ha): 0 | Ducksalad plant response rating (ducksalad; 125 g ai/ha): 0 | Barnyardgrass plant response rating (barnyardgrass [3]; 125 g ai/ha): 0

CCc1nn(C(C)(C)CC)nc1C(=O)Nc1cccc(OC(F)(F)F)c1 [Compound 374]
Plant response rating (0 to 100 scale), Barnyardgrass (barnyardgrass [1]; [8]): 0 | Barnyardgrass plant response rating (barnyardgrass [1]; [9]): 10 | Barnyardgrass plant response rating (barnyardgrass [1]; [10]): 20 | Plant response rating (0 to 100 scale), Surinam Grass (Surinam grass; 125 g ai/ha): 10 | Surinam Grass plant response rating (Surinam grass; [9]): 10 | Surinam Grass plant response rating (Surinam grass; [5]): 20 | Plant response rating (0 to 100 scale), Cocklebur (cocklebur; [8]): 0 | Cocklebur plant response rating (cocklebur; [9]): 0 | Cocklebur plant response rating (cocklebur; [10]): 30 | Plant response rating (0 to 100 scale), Corn (corn; [8]): 0 | Corn plant response rating (corn; [9]): 10 | Corn plant response rating (corn; [10]): 20 | Plant response rating (0 to 100 scale), Crabgrass, Large (large crabgrass; [8]): 0 | Crabgrass, Large plant response rating (large crabgrass; [9]): 20 | Crabgrass, Large plant response rating (large crabgrass; [10]): 20 | Plant response rating (0 to 100 scale), Foxtail, Giant (giant foxtail; [8]): 10 | Foxtail, Giant plant response rating (giant foxtail; [9]): 20 | Foxtail, Giant plant response rating (giant foxtail; [10]): 20 | Lambsquarters plant response rating (lambsquarters; [9]): 10 | Lambsquarters plant response rating (lambsquarters; [5]): 70 | Plant response rating (0 to 100 scale), Morningglory (morningglory; 125 g ai/ha): 0 | Morningglory plant response rating (morningglory; [9]): 20 | Morningglory plant response rating (morningglory; [5]): 20 | Plant response rating (0 to 100 scale), Pigweed (pigweed; 125 g ai/ha): 30 | Pigweed plant response rating (pigweed; [9]): 30 | Pigweed plant response rating (pigweed; [5]): 70 | Plant response rating (0 to 100 scale), Velvetleaf (velvetleaf; 125 g ai/ha): 0 | Velvetleaf plant response rating (velvetleaf; [9]): 10 | Velvetleaf plant response rating (velvetleaf; [5]): 20 | Blackgrass plant response rating (blackgrass; [9]): 10 | Blackgrass plant response rating (blackgrass; [10]): 30 | Wheat plant response rating (wheat; [9]): 0 | Wheat plant response rating (wheat; [7]): 0 | Wheat plant response rating (wheat; [5]): 20 | Oat, Wild plant response rating (wild oat; [9]): 20 | Oat, Wild plant response rating (wild oat; [5]): 40 | Rice plant response rating (rice; 1000 g ai/ha): 20 | Sedge, Umbrella plant response rating ([2]; 1000 g ai/ha): 0 | Ducksalad plant response rating (ducksalad; 1000 g ai/ha): 50 | Barnyardgrass plant response rating (barnyardgrass [3]; 1000 g ai/ha): 40

CCc1nn(C(C)(C)C)nc1C(=O)Nc1cc(C(=O)N2CC=CC2)ccc1F [Compound 363]
Plant response rating (0 to 100 scale), Barnyardgrass (barnyardgrass [1]; [8]): 0 | Barnyardgrass plant response rating (barnyardgrass [1]; [9]): 0 | Barnyardgrass plant response rating (barnyardgrass [1]; [10]): 0 | Plant response rating (0 to 100 scale), Surinam Grass (Surinam grass; 125 g ai/ha): 0 | Surinam Grass plant response rating (Surinam grass; [9]): 10 | Plant response rating (0 to 100 scale), Cocklebur (cocklebur; [8]): 0 | Cocklebur plant response rating (cocklebur; [9]): 20 | Cocklebur plant response rating (cocklebur; [10]): 30 | Plant response rating (0 to 100 scale), Corn (corn; [8]): 0 | Corn plant response rating (corn; [9]): 0 | Corn plant response rating (corn; [10]): 0 | Plant response rating (0 to 100 scale), Crabgrass, Large (large crabgrass; [8]): 20 | Crabgrass, Large plant response rating (large crabgrass; [9]): 10 | Crabgrass, Large plant response rating (large crabgrass; [10]): 10 | Plant response rating (0 to 100 scale), Foxtail, Giant (giant foxtail; [8]): 20 | Foxtail, Giant plant response rating (giant foxtail; [9]): 10 | Foxtail, Giant plant response rating (giant foxtail; [10]): 10 | Plant response rating (0 to 100 scale), Lambsquarters (lambsquarters; 125 g ai/ha, 0 is no effect, 100 is complete control, preemergence): 0 | Lambsquarters plant response rating (lambsquarters; [9]): 30 | Plant response rating (0 to 100 scale), Morningglory (morningglory; 125 g ai/ha): 0 | Morningglory plant response rating (morningglory; [9]): 50 | Plant response rating (0 to 100 scale), Pigweed (pigweed; 125 g ai/ha): 0 | Pigweed plant response rating (pigweed; [9]): 20 | Plant response rating (0 to 100 scale), Velvetleaf (velvetleaf; 125 g ai/ha): 0 | Velvetleaf plant response rating (velvetleaf; [9]): 10 | Blackgrass plant response rating (blackgrass; [9]): 20 | Blackgrass plant response rating (blackgrass; [10]): 70 | Wheat plant response rating (wheat; [9]): 10 | Wheat plant response rating (wheat; [7]): 30 | Oat, Wild plant response rating (wild oat; [9]): 20 | Rice plant response rating (rice; 1000 g ai/ha): 60 | Sedge, Umbrella plant response rating ([2]; 1000 g ai/ha): 80 | Ducksalad plant response rating (ducksalad; 1000 g ai/ha): 90 | Barnyardgrass plant response rating (barnyardgrass [3]; 1000 g ai/ha): 60

Reference: patent US20060069132A1, “Azolecarboxamide herbicides” (priority 2004, published 2006)
